# Results published in PubChem BioAssay (NCI).
#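 Grown in 96-well plates, cells were treated for 48 hours with each compound at five concentrations. Insufficient inhibition: endpoint recorded as highest concentration tested. The concentration for full growth arrest is given as TGI.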
# Tests used:
# Assay in all cases: DTP human tumour cell line panel, 48 h
# [1] = system: NCI-H460 lung
# [2] = system: HCT-15 colon
# [3] = system: SNB-75 CNS
# [4] = system: HCT-116 colon
# [5] = system: MDA-N
# [6] = system: UACC-62 melanoma
# [7] = system: IGROV1 ovarian
# [8] = system: LOX IMVI melanoma
# [9] = system: KM12 colon
# [10] = system: SNB-19 CNS
# [11] = system: NCI-H522 lung
# [12] = system: CCRF-CEM leukemia
# [13] = system: TK-10 renal
# [14] = system: SF-268 CNS
# [15] = system: SK-MEL-5 melanoma
# [16] = system: HS 578T breast
# [17] = system: HCC-2998 colon
# [18] = system: RXF 393 renal
# [19] = system: HOP-92 NSCLC
# [20] = system: OVCAR-5 ovarian
# [21] = system: U251 CNS
# [22] = system: DU-145 prostate
# [23] = system: MDA-MB-435
# [24] = system: SK-MEL-28 melanoma
# [25] = system: COLO 205 colon
# [26] = system: SW-620 colon
# [27] = system: RPMI-8226 leukemia
# [28] = system: SK-OV-3 ovarian
# [29] = system: MALME-3M melanoma
# [30] = system: T-47D breast
# [31] = system: OVCAR-3 ovarian
# [32] = system: SR leukemia
# [33] = system: UO-31 renal
# [34] = system: MOLT-4 leukemia
# [35] = system: K-562 leukemia
# [36] = system: MDA-MB-231 breast
# [37] = system: UACC-257 melanoma
# [38] = system: PC-3 prostate
# [39] = system: A498 renal
# [40] = system: NCI-H23 lung
# [41] = system: MCF7 breast
# [42] = system: 786-0 renal
# [43] = system: SF-295 CNS
# [44] = system: ACHN renal
# [45] = system: NCI-H226 lung
# [46] = system: A549 NSCLC
# [47] = system: EKVX NSCLC
# [48] = system: SK-MEL-2 melanoma
# [49] = system: CAKI-1 renal
# [50] = system: HT29 colon
# [51] = system: OVCAR-8 ovarian
# [52] = system: SN12C renal
# [53] = system: BT-549 breast
# [54] = system: NCI/ADR-RES ovarian
# [55] = system: M14 melanoma
# [56] = system: OVCAR-4 ovarian
# [57] = system: HOP-62 NSCLC
# [58] = system: SF-539 CNS
structure (smiles),measurement,setting,value
Cn1c(O)c(C2=Nc3ccccc3C2=O)c2ccccc21,TGI,[1],> 100 µM
same,TGI,[2],> 100 µM
same,TGI,[3],> 100 µM
same,TGI,[4],> 100 µM
same,TGI,[5],> 100 µM
same,TGI,[6],> 100 µM
same,TGI,[7],> 100 µM
same,TGI,[8],> 100 µM
same,TGI,[9],> 100 µM
same,TGI,[10],> 100 µM
same,TGI,[11],> 100 µM
same,TGI,[12],> 100 µM
same,TGI,[13],> 100 µM
same,TGI,[14],> 100 µM
same,TGI,[15],> 100 µM
same,TGI,[16],> 100 µM
same,TGI,[17],> 100 µM
same,TGI,[18],> 100 µM
same,TGI,[19],> 100 µM
same,TGI,[20],> 100 µM
same,TGI,[21],> 100 µM
same,TGI,[22],> 100 µM
same,TGI,[23],> 100 µM
same,TGI,[24],> 100 µM
same,TGI,[25],> 100 µM
same,TGI,[26],> 100 µM
same,TGI,[27],> 100 µM
same,TGI,[28],> 100 µM
same,TGI,[29],> 100 µM
same,TGI,[30],> 100 µM
same,TGI,[31],> 100 µM
same,TGI,[32],> 100 µM
same,TGI,[33],> 100 µM
same,TGI,[34],> 100 µM
same,TGI,[35],> 100 µM
same,TGI,[36],> 100 µM
same,TGI,[37],> 100 µM
same,TGI,[38],> 100 µM
same,TGI,[39],> 100 µM
same,TGI,[40],> 100 µM
same,TGI,[41],> 100 µM
same,TGI,[42],> 100 µM
same,TGI,[43],> 100 µM
same,TGI,[44],> 100 µM
same,TGI,[45],> 100 µM
same,TGI,[46],> 100 µM
same,TGI,[47],> 100 µM
same,TGI,[48],> 100 µM
same,TGI,[49],> 100 µM
same,TGI,[50],> 100 µM
same,TGI,[51],> 100 µM
same,TGI,[52],> 100 µM
same,TGI,[53],> 100 µM
same,TGI,[54],> 100 µM
same,TGI,[55],> 100 µM
same,TGI,[56],> 100 µM
same,TGI,[57],> 100 µM
COc1ccc2[nH]c(S(=O)(=O)N3CC(CCl)c4ccc(N)cc43)cc2c1 (configuration not stated),TGI,[1],14.2 µM
same,TGI,[2],26.4 µM
same,TGI,[4],> 31.8 µM
same,TGI,[5],< 0.0189 µM
same,TGI,[6],25.4 µM
same,TGI,[7],24.2 µM
same,TGI,[8],17.7 µM
same,TGI,[9],3.86 µM
same,TGI,[10],> 100 µM
same,TGI,[11],10.1 µM
same,TGI,[12],> 50.7 µM
same,TGI,[13],> 82.3 µM
same,TGI,[14],14.1 µM
same,TGI,[58],12.7 µM
same,TGI,[16],16.5 µM
same,TGI,[17],14.9 µM
same,TGI,[18],29.4 µM
same,TGI,[19],63.4 µM
same,TGI,[20],35.2 µM
same,TGI,[21],> 70.5 µM
same,TGI,[22],> 37.4 µM
same,TGI,[23],3.35 µM
same,TGI,[24],68.2 µM
same,TGI,[25],53.3 µM
same,TGI,[26],> 100 µM
same,TGI,[27],22 µM
same,TGI,[28],38.3 µM
same,TGI,[29],27.6 µM
same,TGI,[30],> 100 µM
same,TGI,[31],25.8 µM
same,TGI,[32],16.9 µM
same,TGI,[33],4 µM
same,TGI,[34],18.4 µM
same,TGI,[36],26.9 µM
same,TGI,[37],67.5 µM
same,TGI,[38],16.6 µM
same,TGI,[39],17.6 µM
same,TGI,[41],> 100 µM
same,TGI,[42],14.7 µM
same,TGI,[43],2.27 µM
same,TGI,[44],49.5 µM
same,TGI,[45],20.1 µM
same,TGI,[46],36 µM
same,TGI,[47],52.6 µM
same,TGI,[49],19.9 µM
same,TGI,[50],4.69 µM
same,TGI,[51],19.4 µM
same,TGI,[52],16.5 µM
same,TGI,[53],27.6 µM
same,TGI,[54],18.6 µM
same,TGI,[55],16.6 µM
same,TGI,[56],35.3 µM
same,TGI,[57],28.6 µM
Oc1ccc2ccccc2c1CN(Cc1c(O)ccc2ccccc12)C1CCCCC1,TGI,[1],51 µM
same,TGI,[2],45.4 µM
same,TGI,[3],50.5 µM
same,TGI,[4],29.3 µM
same,TGI,[5],28.7 µM
same,TGI,[6],32.9 µM
same,TGI,[7],27.6 µM
same,TGI,[8],28.2 µM
same,TGI,[9],> 100 µM
same,TGI,[10],90.2 µM
same,TGI,[11],27.1 µM
same,TGI,[12],> 100 µM
same,TGI,[13],36.9 µM
same,TGI,[14],27 µM
same,TGI,[58],29.4 µM
same,TGI,[15],28.1 µM
same,TGI,[16],79 µM
same,TGI,[17],27.7 µM
same,TGI,[18],46.7 µM
same,TGI,[19],37.1 µM
same,TGI,[20],> 100 µM
same,TGI,[21],45.2 µM
same,TGI,[22],42.8 µM
same,TGI,[23],43.6 µM
same,TGI,[24],51.9 µM
same,TGI,[25],29.6 µM
same,TGI,[26],48.9 µM
same,TGI,[27],97.2 µM
same,TGI,[28],> 100 µM
same,TGI,[29],29.2 µM
same,TGI,[30],> 100 µM
same,TGI,[31],41.7 µM
same,TGI,[32],83.9 µM
same,TGI,[33],38.1 µM
same,TGI,[34],41.4 µM
same,TGI,[35],53.5 µM
same,TGI,[36],44.1 µM
same,TGI,[37],28.7 µM
same,TGI,[38],38.2 µM
same,TGI,[39],71.6 µM
same,TGI,[40],31.5 µM
same,TGI,[41],29.3 µM
same,TGI,[42],30.7 µM
same,TGI,[43],> 100 µM
same,TGI,[44],34.7 µM
same,TGI,[46],44.4 µM
same,TGI,[47],29.7 µM
same,TGI,[48],67.1 µM
same,TGI,[49],33.6 µM
same,TGI,[50],39.6 µM
same,TGI,[51],44.6 µM
same,TGI,[52],28 µM
same,TGI,[53],42.7 µM
same,TGI,[54],54.9 µM
same,TGI,[55],31.3 µM
same,TGI,[56],47.1 µM
same,TGI,[57],> 100 µM
